# Read-outs that look alike come from different tables or passages of the source.
# Experiments:
# Format in all cases: biochemical
# [1] = molecular target: E. coli ligase (D-Ala-D-Ala ligase) (Escherichia coli, UniProt P07862); experiment: D-Ala-D-Ala ligase Ki determination (PK/LDH coupled assay), E. coli ligase
# Text: (§1) Inhibition of D-Ala-D-Ala ligase can be assayed for using the pyruvate kinase/lactate dehydrogenase (PK/LDH) assay described in Example 2, and as described in the literature (e.g., in Sarthy et al., Anal. Biochem., 254:288-290, 1997). In the bacterial cell wall synthesis process, the ligase catalyzes the conversion of adenosine triphosphate (ATP) to adenosine diphosphate (ADP) concurrent with the ligation of two D-alanine residues to form D-alanyl-D-alanine. PK then regenerates ATP from the ADP thus created simultaneously with the conversion of phosphopyruvate to pyruvate. LDH catalyzes the reduction of pyruvate to lactate by converting NADH to NAD^+. By monitoring the production rate of NAD^+ (e.g., using UV/Vis spectroscopy), D-Ala-D-Ala ligase activity can be ascertained.
# (§2) The protein sequence for the enzyme D-ala-D-ala ligase has been determined in a variety of different bacterial species using standard techniques in biochemistry (see Table 5). The protein sequence from any species can be overexpressed in an appropriate host organism such as E. coli using standard molecular biology techniques. The ligase enzyme can be harvested, purified, and used in the above described assay for the determination of inhibitory activity.
# (§3) The synthetic analogs of Example 1 were dissolved in dimethylsulfoxide (DMSO) at a concentration of 100 mM on the day of screening, using a vortex mixer and sonication if necessary for dissolution. The solutions were kept at room temperature until screening was completed.
# (§4) A 10 mM NADH (Sigma) stock solution was prepared freshly on the day of screening by dissolving 32 μmol NADH in 3.2 ml double-distilled water. The NADH solution was kept on ice. Stock solutions containing 50 mM phosphoenolpyruvate (PEP; Sigma), 500 μM HERMES, 30 mM adenosine triphosphate (ATP; Sigma), 200 mM D-alanine (Sigma), and 4× core buffer (i.e., 400 mM Hepes, 40 mM magnesium chloride, and 40 mM potassium chloride), were also stored on ice. A stock solution of pyruvate kinase/lactate dehydrogenase (PK/LDH) was also obtained from Sigma.
# (§5) Table of Final concentrations are dependent on the type of screening:
# (§6) For each set of test compounds, two 96-well plates were used: an inhibitor plate and an enzyme plate. The test compounds correspond to rows A-G of the plates. Adenosine (Sigma) dissolved in DMSO, used as a control, corresponds to row H of each plate.
# (§7) The enzyme solution was allowed to equilibrate to 25° C.
# (§8) Dilutions were prepared in the inhibitor plate as follows: 50 μl DMSO was added to each well of columns 1-11, rows A-G, of the inhibitor plate. 50 μl DMSO were added to each well of columns 1-11, row H. 100 μl of the 100 mM test solutions were added to column 12, rows A-G (i.e., the first compound in row A, the second compound in row B, and so on). 100 μl of a 100 mM Adenosine solution was added to column 12, row H.
# (§9) 50 μl of the test solution was transferred from column 12 in each row to column 11 of the a same row, mixing the solution with the DMSO. 50 μl of solution was then transferred from column 11 in each row to column 10 in the same row, 50 μl from column 10 was transferred to column 9, and so on, down to column 2. No solution was transferred to column 1. Multichannel pipettors were used in making the serial dilution.
# (§10) 120 μl of the enzyme solution was added to each well of the enzyme plate.
# (§11) The substrate solutions were brought to 25° C.
# (§12) The analogs and enzymes were then incubated at 25° C. Since the reactions were initiated in columns, the analog addition is also in columns. At t=0 minutes, 5 μl analog was transferred from each well of columns 1-4 of the inhibitor plate to the corresponding well of the enzyme plate. At t=4 minutes, 5 μl analog was transferred from each well of columns 5-8 of the inhibitor plate to the corresponding well of the enzyme plate. At t=8 minutes, 5 μl analog was transferred from each well of columns 9-12 of the inhibitor plate to the corresponding well of the enzyme plate. The inhibitor plate was then frozen. […]
# [2] = molecular target: Staph ligase (D-Ala-D-Ala ligase) (Staphylococcus aureus, UniProt Q5HEB7); experiment: D-Ala-D-Ala ligase Ki determination (PK/LDH coupled assay), Staph ligase
# Text: as §1, §2, §3, §4, §5, §6, §7, §8, §9, §10, §11, §12
# [3] = molecular target: H. Influenzae ligase (D-Ala-D-Ala ligase) (Haemophilus influenzae, UniProt P44405); experiment: D-Ala-D-Ala ligase Ki determination (PK/LDH coupled assay), H. influenzae ligase
# Text: as §1, §2, §3, §4, §5, §6, §7, §8, §9, §10, §11, §12
# [4] = molecular target: T1, Strep ligase (D-Ala-D-Ala ligase) (Streptococcus pneumoniae serotype 4, UniProt P0CB57); experiment: D-Ala-D-Ala ligase Ki determination (PK/LDH coupled assay), Strep ligase
# T1 sequence (P0CB57 1-347): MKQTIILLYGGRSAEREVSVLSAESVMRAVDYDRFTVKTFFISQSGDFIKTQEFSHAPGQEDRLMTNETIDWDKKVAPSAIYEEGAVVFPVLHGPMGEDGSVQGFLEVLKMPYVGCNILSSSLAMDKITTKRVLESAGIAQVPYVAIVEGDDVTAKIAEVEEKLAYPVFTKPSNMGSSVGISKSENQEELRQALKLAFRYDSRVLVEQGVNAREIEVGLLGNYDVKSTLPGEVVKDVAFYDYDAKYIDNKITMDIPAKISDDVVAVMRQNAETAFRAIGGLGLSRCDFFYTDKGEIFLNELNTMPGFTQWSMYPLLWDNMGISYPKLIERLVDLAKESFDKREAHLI
# Text: as §1, §2, §3, §4, §5, §6, §7, §8, §9, §10, §11, §12
# [5] = Table 1, read-out: Ki (E. coli ligase)/μM
# [6] = E. coli ligase Ki/ATP (uM) avg, Table 3, Ki/ATP, avg
# [7] = Table 3, Ki/ATP, avg, read-out: Staph ligase Ki/ATP (uM) avg
# [8] = Table 3, Ki/ATP, avg, read-out: H. Influenzae ligase Ki/ATP (uM) avg
# [9] = Table 3, Ki/ATP, avg, read-out: Strep ligase Ki/ATP (uM) avg
# [10] = E. coli ligase Ki/ATP (uM) avg, Table 4, Ki/ATP, avg
# [11] = Table 4, Ki/ATP, avg, read-out: Staph ligase Ki/ATP (uM) avg
# [12] = Table 4, Ki/ATP, avg, read-out: H. Influenzae ligase Ki/ATP (uM) avg
# [13] = Table 4, Ki/ATP, avg, read-out: Strep ligase Ki/ATP (uM) avg
# [14] = E. coli ligase Ki/ATP (uM) avg, Table 5, Ki/ATP, avg
# [15] = Table 5, Ki/ATP, avg, read-out: Staph ligase Ki/ATP (uM) avg
# [16] = Table 5, Ki/ATP, avg, read-out: H. Influenzae ligase Ki/ATP (uM) avg
# [17] = Table 5, Ki/ATP, avg, read-out: Strep ligase Ki/ATP (uM) avg
# [18] = Table 2, read-out: Staph ligase
# Chain of H. Influenzae ligase (D-Ala-D-Ala ligase) (P44405 whole entry): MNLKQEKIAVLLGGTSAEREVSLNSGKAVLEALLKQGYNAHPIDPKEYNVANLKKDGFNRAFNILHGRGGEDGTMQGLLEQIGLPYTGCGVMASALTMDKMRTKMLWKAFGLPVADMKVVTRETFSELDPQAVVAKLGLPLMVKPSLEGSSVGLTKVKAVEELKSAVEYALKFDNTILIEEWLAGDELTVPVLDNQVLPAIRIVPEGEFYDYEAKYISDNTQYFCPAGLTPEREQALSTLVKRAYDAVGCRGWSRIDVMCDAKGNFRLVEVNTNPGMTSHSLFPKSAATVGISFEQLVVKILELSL
# Chain of Staph ligase (D-Ala-D-Ala ligase) (Q5HEB7 whole entry): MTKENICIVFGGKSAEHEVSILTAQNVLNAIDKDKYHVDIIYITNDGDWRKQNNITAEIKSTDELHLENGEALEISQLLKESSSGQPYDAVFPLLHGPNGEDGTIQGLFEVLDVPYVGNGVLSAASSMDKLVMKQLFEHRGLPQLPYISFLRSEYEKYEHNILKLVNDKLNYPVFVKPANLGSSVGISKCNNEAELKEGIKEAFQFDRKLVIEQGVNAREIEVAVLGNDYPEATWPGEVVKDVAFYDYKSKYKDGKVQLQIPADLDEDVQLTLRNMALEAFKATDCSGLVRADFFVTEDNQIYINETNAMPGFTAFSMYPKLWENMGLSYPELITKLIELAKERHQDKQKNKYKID
smiles,measurement,setting,value
CN(Cc1cnc2ccccc2c1)c1ncc2c(N)nc(N)nc2n1,Ki,[1]; [5],1 µM
CC(c1cccc2ccccc12)N(CC(O)C(=O)O)c1ncc2c(N)nc(N)nc2n1 (centres unmarked),Ki,[1]; [5],0.5 µM
CCOc1ccc2ccccc2c1CN(CC(=O)O)c1ncc2c(N)nc(N)nc2n1,Ki,[1]; [5],8.7 µM
CCOc1ccc2ccccc2c1CN(CCC(=O)NCCN)c1ncc2c(N)nc(N)nc2n1,Ki for E. coli ligase (in words),[1],less than one micromolar
same,Ki,[1]; [6],0.7 µM
same,S. aureus ligase activity (in words),[2],single digit micromolar
same,Ki,[2]; [7],4.7 µM
same,Ki for H. influenzae ligase (in words),[3],less than one micromolar
same,Ki,[3]; [8],1 µM
same,S. pneumoniae ligase activity (in words),[4],single digit micromolar
same,Ki,[4]; [9],1.9 µM
CCOc1ccc2ccccc2c1CN(CCC(=O)NCc1ccccn1)c1ncc2c(N)nc(N)nc2n1,Ki,[1]; [6],9.6 µM
same,Ki,[2]; [7],9.5 µM
same,Ki,[3]; [8],0.267 µM
same,Ki,[4]; [9],3.1 µM
CCOc1ccc2ccccc2c1CN(CCC(=O)N1CCOCC1)c1ncc2c(N)nc(N)nc2n1,Ki,[1]; [6],1.9 µM
same,Ki,[2]; [7],3.8 µM
same,Ki,[3]; [8],1.3 µM
same,Ki,[4]; [9],4.1 µM
CCOc1ccc2ccccc2c1CN(CCC(=O)O)c1ncc2c(N)nc(N)nc2n1,Ki,[1]; [10],5.3 µM
same,Ki,[2]; [11],6.7 µM
same,Ki,[3]; [12],3.7 µM
same,Ki,[4]; [13],2.1 µM
C[C@@H](c1cccc2ccccc12)N(CCC(=O)O)c1ncc2c(N)nc(N)nc2n1,Ki,[1]; [10],4.2 µM
same,Ki,[2]; [11],10 µM
same,Ki,[3]; [12],5.7 µM
same,Ki,[4]; [13],14.6 µM
C[C@@H](c1cccc2ccccc12)N(CC(O)C(=O)O)c1ncc2c(N)nc(N)nc2n1 (some centres unmarked),Ki,[1]; [10],1.4 µM
same,Ki,[2]; [11],4.3 µM
same,Ki,[3]; [12],3.5 µM
same,Ki,[4]; [13],4.3 µM
CCOc1ccc2ccccc2c1CN(CC(O)C(=O)O)c1ncc2c(N)nc(N)nc2n1 (centres unmarked),Ki,[1]; E. coli ligase potency,0.143 µM
same,Ki,[2]; read-out: activity against Staph (ligase),4.1 µM
same,Ki,[3]; read-out: activity against H. influenzae (ligase),0.566 µM
same,Ki,[4]; read-out: activity against Strep (ligase),2.6 µM
CCCN(c1ncc2c(N)nc(N)nc2n1)C(C)c1cccc2ccccc12 (centres unmarked),Ki,[1]; [14],2 µM
same,Ki,[2]; [15],58 µM
same,Ki,[3]; [16],2.7 µM
same,Ki,[4]; [17],439 µM
CC(c1cccc2ccccc12)N(CCCN)c1ncc2c(N)nc(N)nc2n1 (centres unmarked),Ki,[1]; [14],0.457 µM
same,Ki,[2]; [15],46 µM
same,Ki,[3]; [16],5.5 µM
same,Ki,[4]; [17],81.2 µM
C[C@@H](c1cccc2ccccc12)N(C[C@@H](O)C(=O)O)c1ncc2c(N)nc(N)nc2n1 (racemic),Ki,[1]; [10],0.611 µM
same,Ki,[2]; [11],7.8 µM
C[C@H](c1ccc(F)c2ccccc12)N(C)c1ncc2c(N)nc(N)nc2n1 [CH3|CH3|R|F],Ki,"[1]; E. coli ligase (μM), Table 2",0.104 µM
same,Ki,[2]; [18],27 µM
CC(c1cccc2ccccc12)N(CCCCN)c1ncc2c(N)nc(N)nc2n1 (centres unmarked) [drawing 41],Ki,[1]; [5],0.13 µM
CCN(c1ncc2c(N)nc(N)nc2n1)C(C)c1ccc(C)c2ccccc12 (centres unmarked) [—CH2CH3|CH3|R/S|CH3],Ki,"[1]; E. coli ligase (μM), Table 2",0.21 µM
same,Ki,[2]; [18],38.5 µM
CCN(c1ncc2c(N)nc(N)nc2n1)[C@H](C)c1ccc(C)c2ccccc12 [—CH2CH3|CH3|R|CH3],Ki,"[1]; E. coli ligase (μM), Table 2",0.102 µM
same,Ki,[2]; [18],71 µM
Cc1ccc([C@@H](C)N(CC2CC2)c2ncc3c(N)nc(N)nc3n2)c2ccccc12 [—CH2CH(CH2)2|CH3|R|CH3],Ki,"[1]; E. coli ligase (μM), Table 2",0.174 µM
same,Ki,[2]; [18],62 µM
"CCC(c1cccc2ccccc12)N(C)c1ncc2c(N)nc(N)nc2n1 (centres unmarked) [—CH3|C2H5|R/S|H, N7-Methyl-N-7-(1-naphthalen-1-yl-propyl)-pyrimido[4,5-d]pyrimidine-2,4,7-triamine]",Ki,"[1]; E. coli ligase (μM), Table 2",0.452 µM
same,Ki,[2]; [18],4.6 µM
"Cc1ccc(C(C)N(C)c2ncc3c(N)nc(N)nc3n2)c2ccccc12 (centres unmarked) [—CH3|CH3|R/S|CH3, N7-Methyl-N7-[1-(4-methyl-naphthalen-1-yl)-ethyl]-pyrimido[4,5-d]pyrimidine-2,4,7-triamine]",Ki,"[1]; E. coli ligase (μM), Table 2",0.277 µM
same,Ki,[2]; [18],12.3 µM
CC(c1ccc(Cl)c2ccccc12)N(C)c1ncc2c(N)nc(N)nc2n1 (centres unmarked) [—CH3|CH3|R/S|Cl],Ki,"[1]; E. coli ligase (μM), Table 2",0.201 µM
same,Ki,[2]; [18],4.9 µM
CC(c1cccc2ccccc12)N(C)c1ncc2c(N)nc(N)nc2n1 (centres unmarked) [—CH3|CH3|R/S|H],Ki,"[1]; E. coli ligase (μM), Table 2",0.718 µM
same,Ki,[2]; [18],9.28 µM

# — patent publication US20080090847A1, “HETEROCYCLIC COMPOUNDS AND USES THEREOF AS D-ALANYL-D-ALANINE LIGASE INHIBITORS” (PLIVA D.D., priority 2001, published 2008)
